Measurements: BigSolDB 2.1

SMILES | solubility (mole fraction) (in acetic acid, 288.15 K) | solubility (mole fraction) (in acetic acid, 293.15 K) | solubility (mole fraction) (in acetic acid, 298.15 K) | solubility (mole fraction) (in acetic acid, 303.15 K) | solubility (mole fraction) (in acetic acid, 308.15 K) | solubility (mole fraction) (in acetic acid, 315.15 K) | solubility (mole fraction) (in acetic acid, 318.15 K) | solubility (mole fraction) (in acetic acid, 323.15 K) | solubility (mole fraction) (in acetone, 288.15 K) | solubility (mole fraction) (in acetone, 293.15 K) | solubility (mole fraction) (in acetone, 298.15 K) | solubility (mole fraction) (in acetone, 303.15 K) | solubility (mole fraction) (in acetone, 308.15 K) | solubility (mole fraction) (in acetone, 315.15 K) | solubility (mole fraction) (in acetone, 318.15 K) | solubility (mole fraction) (in acetone, 323.15 K) | solubility (mole fraction) (in ethanol, 288.15 K) | solubility (mole fraction) (in ethanol, 293.15 K) | solubility (mole fraction) (in ethanol, 298.15 K) | solubility (mole fraction) (in ethanol, 303.15 K) | other results
O=C(O)CCCCCC(=O)O | 0.0648 | 0.0794 | 0.0964 | 0.119 | 0.14 | 0.169 | 0.199 | 0.232 | 0.0546 | 0.0752 | 0.118 | 0.146 | 0.174 | 0.202 | 0.224 | 0.246 | 0.0677 | 0.0851 | 0.104 | 0.126 | solubility (mole fraction) (in ethanol, 308.15 K): 0.15; solubility (mole fraction) (in ethanol, 315.15 K): 0.178; solubility (mole fraction) (in ethanol, 318.15 K): 0.204; solubility (mole fraction) (in ethanol, 323.15 K): 0.237; solubility (mole fraction) (in ethyl acetate, 288.15 K): 0.0233; solubility (mole fraction) (in ethyl acetate, 293.15 K): 0.0321; solubility (mole fraction) (in ethyl acetate, 298.15 K): 0.0517; solubility (mole fraction) (in ethyl acetate, 303.15 K): 0.0718; solubility (mole fraction) (in ethyl acetate, 308.15 K): 0.0802; solubility (mole fraction) (in ethyl acetate, 315.15 K): 0.0904; solubility (mole fraction) (in ethyl acetate, 318.15 K): 0.102; solubility (mole fraction) (in ethyl acetate, 323.15 K): 0.128
O=C(O)CCCCCCCC(=O)O | 0.0333 | 0.04 | 0.0524 | 0.0631 | 0.0761 | 0.0923 | 0.111 | 0.133 | 0.029 | 0.0331 | 0.04 | 0.0494 | 0.0634 | 0.0806 | 0.103 | 0.143 | 0.0534 | 0.0601 | 0.0707 | 0.0851 | solubility (mole fraction) (in ethanol, 308.15 K): 0.102; solubility (mole fraction) (in ethanol, 315.15 K): 0.124; solubility (mole fraction) (in ethanol, 318.15 K): 0.15; solubility (mole fraction) (in ethanol, 323.15 K): 0.185; solubility (mole fraction) (in ethyl acetate, 288.15 K): 0.00911; solubility (mole fraction) (in ethyl acetate, 293.15 K): 0.0113; solubility (mole fraction) (in ethyl acetate, 298.15 K): 0.0162; solubility (mole fraction) (in ethyl acetate, 303.15 K): 0.0232; solubility (mole fraction) (in ethyl acetate, 308.15 K): 0.0326; solubility (mole fraction) (in ethyl acetate, 315.15 K): 0.0524; solubility (mole fraction) (in ethyl acetate, 318.15 K): 0.0663; solubility (mole fraction) (in ethyl acetate, 323.15 K): 0.0964
O=C(O)CCCCCCC(=O)O | 0.0115 | 0.0145 | 0.0176 | 0.0216 | 0.0264 | 0.0329 | 0.0405 | 0.0501 | 0.0092 | 0.0127 | 0.0167 | 0.021 | 0.025 | 0.0301 | 0.0356 | 0.0405 | 0.0208 | 0.0253 | 0.031 | 0.0375 | solubility (mole fraction) (in ethanol, 308.15 K): 0.0454; solubility (mole fraction) (in ethanol, 315.15 K): 0.0553; solubility (mole fraction) (in ethanol, 318.15 K): 0.0683; solubility (mole fraction) (in ethanol, 323.15 K): 0.0847; solubility (mole fraction) (in ethyl acetate, 288.15 K): 0.00238; solubility (mole fraction) (in ethyl acetate, 293.15 K): 0.00302; solubility (mole fraction) (in ethyl acetate, 298.15 K): 0.00389; solubility (mole fraction) (in ethyl acetate, 303.15 K): 0.00513; solubility (mole fraction) (in ethyl acetate, 308.15 K): 0.00641; solubility (mole fraction) (in ethyl acetate, 315.15 K): 0.00819; solubility (mole fraction) (in ethyl acetate, 318.15 K): 0.00978; solubility (mole fraction) (in ethyl acetate, 323.15 K): 0.0118
O=C(O)CCCC(=O)O | 0.173 | 0.196 | 0.221 | 0.241 | 0.276 | 0.31 | 0.341 | 0.385 | 0.183 | 0.207 | 0.237 | 0.264 | 0.329 | 0.324 | 0.375 | 0.417 | 0.136 | 0.158 | 0.176 | 0.201 | solubility (mole fraction) (in ethanol, 308.15 K): 0.228; solubility (mole fraction) (in ethanol, 315.15 K): 0.274; solubility (mole fraction) (in ethanol, 318.15 K): 0.322; solubility (mole fraction) (in ethanol, 323.15 K): 0.35; solubility (mole fraction) (in ethyl acetate, 288.15 K): 0.0861; solubility (mole fraction) (in ethyl acetate, 293.15 K): 0.105; solubility (mole fraction) (in ethyl acetate, 298.15 K): 0.123; solubility (mole fraction) (in ethyl acetate, 303.15 K): 0.133; solubility (mole fraction) (in ethyl acetate, 308.15 K): 0.146; solubility (mole fraction) (in ethyl acetate, 315.15 K): 0.176; solubility (mole fraction) (in ethyl acetate, 318.15 K): 0.227; solubility (mole fraction) (in ethyl acetate, 323.15 K): 0.307
